Data from patent US10323032B2, “P2X7 Modulators” (Janssen Pharmaceutica NV, priority 2013, dated 2019).
Where two headings read alike, the source gives them in different places.

Biological target: P2X7 receptor (Homo sapiens (Human), UniProt Q99572)
Test: P2X7 antagonism in human PBMCs: IL-1β release (ELISA) after LPS + Bz-ATP
Assay type: cell-based
Details: LPS 30 ng/ml + 0.5 mM Bz-ATP; for remaining activity at 10 µM: read-out: PBMC 10 μM (% control)
Experimental: Human blood was collected using a blood donor program. […] Cells were incubated for an additional 1.5 hours. […] Data are analyzed and graphed on Graphpad Prism 5. […] The IC50 for each compound is then uploaded into 3DX.

[1] = P2X7, Table 3 (additional runs), 10 μM compound

Sequence of P2X7 receptor (Q99572 whole entry): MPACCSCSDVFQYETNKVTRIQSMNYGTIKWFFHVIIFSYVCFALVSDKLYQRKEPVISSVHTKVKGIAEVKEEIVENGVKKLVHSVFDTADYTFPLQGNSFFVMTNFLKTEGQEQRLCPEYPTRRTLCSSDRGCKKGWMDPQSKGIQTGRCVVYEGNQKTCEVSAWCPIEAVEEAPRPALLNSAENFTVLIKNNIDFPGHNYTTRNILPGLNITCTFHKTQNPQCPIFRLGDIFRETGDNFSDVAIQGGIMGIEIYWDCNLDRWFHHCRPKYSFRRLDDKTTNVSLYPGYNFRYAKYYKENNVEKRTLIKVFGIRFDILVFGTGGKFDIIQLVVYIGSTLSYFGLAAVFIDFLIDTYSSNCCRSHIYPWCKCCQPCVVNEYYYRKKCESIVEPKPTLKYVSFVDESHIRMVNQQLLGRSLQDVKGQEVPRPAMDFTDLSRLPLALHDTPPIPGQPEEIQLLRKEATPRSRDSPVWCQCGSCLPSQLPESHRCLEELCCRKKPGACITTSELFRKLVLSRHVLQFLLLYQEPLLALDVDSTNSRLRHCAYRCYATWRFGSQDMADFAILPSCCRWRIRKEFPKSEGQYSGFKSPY

Q: Which remaining activity at 10 µM [1] does the source give for `Cc1nc2c(c(-c3ccn[nH]3)n1)C[C@@H](C)N(C(=O)c1cccc(F)c1Cl)C2` (single isomer, unassigned) [Example 144, (R*)-(2-chloro-3-fluorophenyl)(2,6-dimethyl-4-(1H-pyrazol-5-yl)-5,6-dihydropyrido[3,4-d]pyrimidin-7(8H)-yl)methanone] here?
A: Its remaining activity at 10 µM is -18.9%.

Q: Which remaining activity at 10 µM [1] does the source give for `Cc1nc2c(c(-c3ccn[nH]3)n1)C[C@@H](C)N(C(=O)c1cccc(OC(F)(F)F)c1)C2` (single isomer, unassigned) [Example 141, (R*)-(2,6-dimethyl-4-(1H-pyrazol-5-yl)-5,6-dihydropyrido[3,4-d]pyrimidin-7(8H)-yl)(3-(trifluoromethoxy)phenyl)methanone] here?
A: The remaining activity at 10 µM was -0.6%.

Q: `Cc1nc2c(c(-c3ccn[nH]3)n1)C[C@H](C)N(C(=O)c1ccc(Cl)cc1F)C2` (single isomer, unassigned) [Example 89, (S*)-(4-chloro-2-fluorophenyl)(2,6-dimethyl-4-(1H-pyrazol-5-yl)-5,6-dihydropyrido[3,4-d]pyrimidin-7(8H)-yl)methanone] was tested. Which remaining activity at 10 µM (P2X7, Table 2, 10 μM compound) did it give?
A: Its remaining activity at 10 µM is -16.4%.

Q: `Cc1nc2c(c(-c3ccn[nH]3)n1)CC(C)N(C(=O)c1cccc(OC(F)(F)F)c1)C2` (stereo not shown) [Example 140, (2,6-dimethyl-4-(1H-pyrazol-5-yl)-5,6-dihydropyrido[3,4-d]pyrimidin-7(8H)-yl)(3-(trifluoromethoxy)phenyl)methanone] was tested. Which “PBMC 10 μM (% control)” value (Table 3 (additional runs), 10 μM compound) did it give?
A: The value was 52.5 % control.
